Test results taken from patent US20070254863A1 (priority 2006, published 2007).
Like-named read-outs stand apart in the source and are kept apart here.

Assays:
hamster SUR1 = target: T1, hamster SUR1 (Cricetus cricetus, UniProt Q09427); assay: In vitro binding affinity to rodent KATP channels: SUR1 ([3H]glibenclamide displacement, COS cell membranes); conditions: hamster SUR1 in COS cell membranes; read-out: Affinity to SUR 1 (converted)
T1 construct: expressed in transfected cells; host or cells: COS-1 cells, transient (pcDNA vector)
T1 sequence (Q09427 whole entry): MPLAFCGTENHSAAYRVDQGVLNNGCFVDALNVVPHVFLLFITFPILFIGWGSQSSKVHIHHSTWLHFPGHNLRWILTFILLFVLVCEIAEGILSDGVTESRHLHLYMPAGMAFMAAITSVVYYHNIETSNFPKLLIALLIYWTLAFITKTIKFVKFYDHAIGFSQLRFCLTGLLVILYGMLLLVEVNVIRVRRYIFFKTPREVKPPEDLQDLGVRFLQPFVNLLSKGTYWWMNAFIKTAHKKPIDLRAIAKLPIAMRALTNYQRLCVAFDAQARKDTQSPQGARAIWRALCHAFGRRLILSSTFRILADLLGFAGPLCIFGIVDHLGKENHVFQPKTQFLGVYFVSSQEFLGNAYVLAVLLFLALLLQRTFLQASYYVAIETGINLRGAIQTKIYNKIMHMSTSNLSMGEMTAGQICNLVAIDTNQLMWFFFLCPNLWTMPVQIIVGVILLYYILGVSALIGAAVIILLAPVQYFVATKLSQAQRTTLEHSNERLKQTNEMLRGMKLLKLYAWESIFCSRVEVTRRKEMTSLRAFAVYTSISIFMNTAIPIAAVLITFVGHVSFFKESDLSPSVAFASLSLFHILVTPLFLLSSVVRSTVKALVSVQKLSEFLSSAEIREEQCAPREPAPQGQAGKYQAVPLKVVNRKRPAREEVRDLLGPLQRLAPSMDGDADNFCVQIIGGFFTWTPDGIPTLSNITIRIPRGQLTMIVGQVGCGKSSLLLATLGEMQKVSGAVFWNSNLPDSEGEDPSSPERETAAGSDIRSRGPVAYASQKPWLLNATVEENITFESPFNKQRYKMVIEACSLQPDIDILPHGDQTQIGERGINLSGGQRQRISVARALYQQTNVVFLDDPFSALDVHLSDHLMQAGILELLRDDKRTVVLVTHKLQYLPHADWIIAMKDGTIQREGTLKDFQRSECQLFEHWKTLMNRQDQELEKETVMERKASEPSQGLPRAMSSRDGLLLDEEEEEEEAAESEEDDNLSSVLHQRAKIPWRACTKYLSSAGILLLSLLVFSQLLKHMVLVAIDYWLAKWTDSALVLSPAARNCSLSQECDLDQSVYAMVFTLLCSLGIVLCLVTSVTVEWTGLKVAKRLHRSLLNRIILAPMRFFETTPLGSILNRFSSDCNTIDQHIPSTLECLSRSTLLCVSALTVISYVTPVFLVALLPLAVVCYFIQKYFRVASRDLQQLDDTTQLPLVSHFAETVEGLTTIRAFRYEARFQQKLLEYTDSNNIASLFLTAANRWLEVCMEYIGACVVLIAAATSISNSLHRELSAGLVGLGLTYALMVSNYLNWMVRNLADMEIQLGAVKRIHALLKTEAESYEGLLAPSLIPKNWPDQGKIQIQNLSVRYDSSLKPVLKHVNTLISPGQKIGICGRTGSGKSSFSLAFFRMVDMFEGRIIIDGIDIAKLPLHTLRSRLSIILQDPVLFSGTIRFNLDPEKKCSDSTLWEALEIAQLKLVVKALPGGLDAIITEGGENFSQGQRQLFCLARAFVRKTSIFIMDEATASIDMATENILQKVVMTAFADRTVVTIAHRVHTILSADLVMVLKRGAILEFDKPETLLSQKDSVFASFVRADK

[1] = system: rat perifused pancreatic islets; assay: KATP opening effects through insulin secretion in rat perifused pancreatic islets; format: cell-based; conditions: 11 mM glucose; for % Inhibition 0-30 (insulin secretion): 0-30 minutes; for % Inhibition 30-60 (insulin secretion): 30-60 minutes
Description: Determination of the KATP Opening Effects of Compounds Through Insulin Secretion in Rat Perifused Pancreatic Islets
The animals were maintained on a 12 h light-dark cycle (lights on 06.00-18.00 h) with free access to standard rodent diet (B&K Universal Ltd standard rat and mouse diet (BK 001P), Beekay Feeds, B&K Universal Ltd, Hull, East Riding of Yorkshire) and tap water. The rats were conditioned to this environment for at least one week before experimentation.
Experimental procedures: After the rats were sacrificed, the branch of the bile duct leading to the liver and the duodenal end of the duct in the pancreas were clamped and the pancreas distended by injection of ice-cold 0.9 mg/ml collagenase solution into the bile duct. […] Following incubation, 10 ml of cold buffer was added and the suspension shaken vigorously by hand for 1 min. The islets were allowed to settle for 5 min on ice and washed three times using ice-cold buffer. Well-formed and good-sized islets from three rats were hand-picked (under a low power microscope) and pooled and a final selection of islet transferred to the perifusion apparatus.
Two experiments were performed in parallel in two identical, independent sets of perifusion apparatus each consisting of sufficient number of chambers. Each chamber was loaded with 20 hand-picked islets. Islets were perifused for an initial 30 min period in media containing 4 mM glucose. Perifusate was then collected at 2 min intervals for the remainder of the experiment. […] Perifusate fractions were stored at −75° C. until required for insulin assay. Insulin content of fractions were assayed using a 96-well ELISA assay (Mercodia). Initial insulin assays were performed in triplicate on three pooled fractions from each chamber.
Data were initially expressed as a simple mean of the three experiments for insulin secretion (pg/islet/min) and multiple t-tests (against the corresponding vehicle time period) used to determine potential significant effects of treatments. Alternatively, data were also calculated as a % vehicle effect for each experimental day. This latter approach was deemed to be the more powerful analysis as it corrected for the day to day variation in insulin release from the islets.

rat SUR2A = rat SUR2A (Rattus norvegicus, UniProt Q63563); assay: In vitro binding affinity to rodent KATP channels: SUR2A ([3H]P1075 / [3H]glibenclamide displacement, COS cell membranes)
Chain of rat SUR2A (Q63563 whole entry): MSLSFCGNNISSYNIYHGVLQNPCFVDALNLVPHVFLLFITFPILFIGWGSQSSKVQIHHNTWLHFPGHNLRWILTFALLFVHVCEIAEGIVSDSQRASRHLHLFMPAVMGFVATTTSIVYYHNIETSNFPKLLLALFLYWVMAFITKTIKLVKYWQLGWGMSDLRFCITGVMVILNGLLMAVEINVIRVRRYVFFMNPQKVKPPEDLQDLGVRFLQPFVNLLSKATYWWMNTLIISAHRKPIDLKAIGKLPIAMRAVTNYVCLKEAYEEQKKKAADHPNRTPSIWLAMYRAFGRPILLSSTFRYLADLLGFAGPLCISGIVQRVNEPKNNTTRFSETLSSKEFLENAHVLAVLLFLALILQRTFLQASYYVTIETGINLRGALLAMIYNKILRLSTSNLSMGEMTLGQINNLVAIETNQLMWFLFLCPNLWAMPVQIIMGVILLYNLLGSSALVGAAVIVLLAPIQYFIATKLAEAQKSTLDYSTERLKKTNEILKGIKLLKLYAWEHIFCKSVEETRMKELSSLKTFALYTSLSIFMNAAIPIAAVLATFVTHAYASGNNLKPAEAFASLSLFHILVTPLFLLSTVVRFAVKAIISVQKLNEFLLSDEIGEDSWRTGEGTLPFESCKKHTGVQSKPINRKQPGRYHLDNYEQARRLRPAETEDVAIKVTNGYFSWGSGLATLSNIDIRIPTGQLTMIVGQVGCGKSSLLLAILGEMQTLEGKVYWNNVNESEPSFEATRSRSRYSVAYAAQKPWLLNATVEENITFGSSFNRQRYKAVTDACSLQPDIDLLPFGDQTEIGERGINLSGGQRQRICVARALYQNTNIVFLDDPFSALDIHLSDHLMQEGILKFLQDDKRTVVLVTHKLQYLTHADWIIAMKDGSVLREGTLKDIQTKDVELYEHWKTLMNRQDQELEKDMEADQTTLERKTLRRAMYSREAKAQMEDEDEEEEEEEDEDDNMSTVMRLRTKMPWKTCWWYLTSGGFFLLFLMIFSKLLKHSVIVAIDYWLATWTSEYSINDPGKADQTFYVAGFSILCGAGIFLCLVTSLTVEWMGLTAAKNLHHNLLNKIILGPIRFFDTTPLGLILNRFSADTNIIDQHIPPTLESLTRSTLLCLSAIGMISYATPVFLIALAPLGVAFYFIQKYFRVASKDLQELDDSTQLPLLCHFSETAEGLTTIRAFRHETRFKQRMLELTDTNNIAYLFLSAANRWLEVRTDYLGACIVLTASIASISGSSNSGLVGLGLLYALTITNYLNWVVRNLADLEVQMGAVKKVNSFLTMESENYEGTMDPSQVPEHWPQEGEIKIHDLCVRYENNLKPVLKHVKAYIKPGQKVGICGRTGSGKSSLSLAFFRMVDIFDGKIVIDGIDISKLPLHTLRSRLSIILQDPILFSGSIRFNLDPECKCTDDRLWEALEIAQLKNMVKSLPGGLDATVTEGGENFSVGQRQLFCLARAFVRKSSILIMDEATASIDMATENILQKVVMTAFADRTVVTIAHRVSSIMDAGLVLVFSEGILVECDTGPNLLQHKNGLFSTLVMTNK
Summary of the method: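 COS-cell membranes transiently expressing rat SUR2A incubated 1 h at room temperature in 50 mM Tris pH 7.4, ~0.7 mM free Mg2+, with 3 nM [3H]P1075 (wild type) or [3H]glibenclamide (SUR2AY1205S); filtration read-out. Ki from IC50, reported as pKi; 9-15 concentrations per curve.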

[2] = target: human cannabinoid CB2 receptor (Homo sapiens, UniProt P34972); assay: biochemical; format: binding
Chain of human cannabinoid CB2 receptor (P34972 whole entry): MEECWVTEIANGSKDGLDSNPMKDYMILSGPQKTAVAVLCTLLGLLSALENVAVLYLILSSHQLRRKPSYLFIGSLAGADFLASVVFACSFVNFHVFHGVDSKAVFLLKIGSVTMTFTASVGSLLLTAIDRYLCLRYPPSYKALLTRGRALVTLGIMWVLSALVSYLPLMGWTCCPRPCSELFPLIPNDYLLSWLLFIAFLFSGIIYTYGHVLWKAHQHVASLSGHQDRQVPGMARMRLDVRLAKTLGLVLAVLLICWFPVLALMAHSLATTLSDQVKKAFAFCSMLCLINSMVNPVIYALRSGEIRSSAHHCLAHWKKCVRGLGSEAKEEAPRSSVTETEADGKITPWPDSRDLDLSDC
Description: 3. In Vitro Binding Affinity of the Test Compounds to CB2 Receptors
After incubation of a freshly prepared cell membrane preparation with the [^3H]-ligand, with or without the addition of the compounds described herein, separation of bound and free ligand is performed by filtration over glass-fiber filters. Radioactivity on the filter is measured by liquid scintillation counting.

[3] = cloned human CB2 receptor expressed in CHO cells, read-out: Affinity to CB2 (converted)

SMILES | Ki (hamster SUR1) [nM] | % Inhibition 0-30 (insulin secretion) [1] [%] | % Inhibition 30-60 (insulin secretion) [1] [%] | pKi (rat SUR2A) | Ki [2, 3] [nM] | pKi (rat SUR2A; rat SUR2A in COS cell membranes) | Ki [2] [nM]
CN/C(=N\S(=O)(=O)c1ccc(Cl)cc1)N1C[C@H](c2ccccc2)C(c2ccc(Cl)cc2)=N1 | 501 | 42 | 22 | – | – | – | –
CON/C(=N\S(=O)(=O)c1ccc(Cl)cc1)N1C[C@H](c2cccc(F)c2)C(c2ccc(Cl)cc2)=N1 (stereo in doubt) [4-Chloro-N-{[3-(4-chloro-phenyl)-4-(3-fluoro-phenyl)-4,5-dihydro-pyrazol-1-yl]-methoxyamino-methylene}-benzenesulfonamide] | – | 90 | 95 | – | – | – | –
CN/C(=N\S(=O)(=O)c1ccc(Cl)cc1)N1C[C@@H](c2ccccc2)C(c2ccc(Cl)cc2)=N1 (stereo in doubt) [4-Chloro-N-{[3-(4-chloro-phenyl)-4-phenyl-4,5-dihydro-pyrazol-1-yl]-methylamino-methylene}-benzenesulfonamide] | – | 59 | 25 | – | – | – | –
CCCCCCC(C)(C)c1ccc([C@@H]2C[C@H](O)CC[C@H]2CCCO)c(O)c1 (stereo in doubt) [CP55940, 5-(1,1-Dimethyl-heptyl)-2-[5-hydroxy-2-(3-hydroxy-propyl)-cyclohexyl]-phenol, reference compound] | 5010 | 91 | 56 | – | – | – | –
CCc1c(C(=O)NN2CCCCC2)nc(-c2ncccc2C)n1-c1ccc(Cl)cc1 [1-(4-Chloro-phenyl)-5-ethyl-2-(3-methyl-pyridin-2-yl)-1H-imidazole-4-carboxylic acid piperidin-1-ylamide] | 100000 | – | – | 4.8 | 251 | – | –
N=C(N)C1=NN(c2ccc(Cl)cc2)C(c2ccccc2)C1 (stereo not drawn) [1-(4-Chloro-phenyl)-5-phenyl-4,5-dihydro-1H-pyrazole-3-carboxamidine] | 100000 | – | – | 4.0 | 501 | – | –
CCc1c(C(=O)NC2CCCCC2)nc(-c2ccc(C)n2C)n1-c1ccccc1 [2-(1,5-Dimethyl-1H-pyrrol-2-yl)-5-ethyl-1-phenyl-1H-imidazole-4-carboxylic acid cyclohexylamide] | 100000 | – | – | – | 158 | 4.0 | –
Cc1c(C(=O)NN2CCCCC2)nc(-c2ccc(Cl)cc2Cl)n1-c1ccccn1 [2-(2,4-Dichloro-phenyl)-5-methyl-1-pyridin-2-yl-1H-imidazole-4-carboxylic acid piperidin-1-ylamide] | 100000 | – | – | 4.1 | 631 | – | –
NC(Cc1ccc(Cl)c(Cl)c1)C(=O)N1CC(c2ccccc2)C(c2ccc(Cl)cc2)=N1 (stereo not drawn) [2-Amino-1-[3-(4-chloro-phenyl)-4-phenyl-4,5-dihydro-pyrazol-1-yl]-3-(3,4-dichloro-phenyl)-propan-1-one] | 3980 | – | – | 4.8 | 631 | – | –
CC(C)(CO)CN/C(=N\S(=O)(=O)c1ccc(Cl)cc1)N1CC(c2ccccc2)C(c2ccc(Cl)cc2)=N1 (stereo not drawn) [4-Chloro-N-[[3-(4-chloro-phenyl)-4-phenyl-4,5-dihydro-pyrazol-1-yl]-(3-hydroxy-2,2-dimethyl-propylamino)-methylene]-benzenesulfonamide] | 31600 | – | – | 5.4 | 794 | – | –
CN1CCC(CNC(=NS(=O)(=O)c2ccc(Cl)cc2)N2CC(c3ccccc3)C(c3ccc(Cl)cc3)=N2)C1 (stereo not drawn) [4-Chloro-N-{[3-(4-chloro-phenyl)-4-phenyl-4,5-dihydro-pyrazol-1-yl]-[(1-methyl-pyrrolidin-3-ylmethyl)-amino]-methylene]-benzenesulfonamide] | 1000 | – | – | 4.8 | 1000 | – | –
O=S(=O)(N=C(NCc1cccnc1)N1CC(c2ccccc2)C(c2ccc(Cl)cc2)=N1)c1ccc(Cl)cc1 (stereo not drawn) [4-Chloro-N-{[3-(4-chloro-phenyl)-4-phenyl-4,5-dihydro-pyrazol-1-yl]-[(pyridin-3-ylmethyl)-amino]-methylene}-benzenesulfonamide] | 1260 | – | – | 5.7 | 501 | – | –
Cc1c(C=C(c2cc(F)cc(F)c2)S(C)(=O)=O)nn(-c2ccc(Cl)cc2Cl)c1-c1ccc(Br)cc1 [5-(4-Bromo-phenyl)-1-(2,4-dichloro-phenyl)-3-(2-(3,5-difluoro-phenyl)-2-methanesulfonyl-vinyl]-4-methyl-1H-pyrazole] | 100000 | – | – | 4.0 | 1260 | – | –
O=C(NN1CCCCC1)C1=NN(c2ccc(Cl)cc2Cl)C(c2ccc(Cl)cc2)C1 (stereo not drawn) [5-(4-Chloro-phenyl)-1-(2,4-dichloro-phenyl)-4,5-dihydro-1H-pyrazole-3-carboxylic acid piperidine-1-ylamide] | 3980 | – | – | 5.6 | 794 | – | –
Cn1c(C(=O)NN2CCCCC2)nc(-c2cc(Cl)ccc2Cl)c1-c1ccc(Cl)cc1 [5-(4-Chloro-phenyl)-4-(2,5-dichloro-phenyl)-1-methyl 1H-imidazole-2-carboxylic acid piperidin-1-ylamide] | 25100 | – | – | 5.0 | 398 | – | –
C[C@H](NS(C)(=O)=O)c1ccc(S(=O)(=O)c2ccc(Cl)cc2S(=O)(=O)c2ccccc2F)cc1 [N-(1-{4-[4-Chloro-2-(2-fluoro-benzenesulfonyl)-benzenesulfonyl]-phenyl}-ethyl)-methanesulfonamide, reference compound] | 1260 | – | – | 4.7 | – | – | 0.501
CN/C(=N\S(=O)(=O)c1ccc(C(F)(F)F)cc1)N1CC(c2cccnc2)C(c2ccc(Cl)cc2)=N1 (stereo not drawn) [N-([3-(4-Chloro-phenyl)-4-pyridin-3-yl-4,5-dihydro-pyrazol-1-yl]-methylamino-methylene}-4-trifluoromethyl-benzenesulfonamide] | 501 | 58 | 31 | 4.9 | – | – | –
NC(=NS(=O)(=O)c1ccc(Cl)cc1)N1CC(c2ccccc2)C(c2ccc(Cl)cc2)=N1 (stereo not drawn) [N-{Amino-[3-(4-chloro-phenyl)-4-phenyl-4,5-dihydro-pyrazol-1-yl]-methylene}-4-chloro-benzenesulfonamide] | 1000 | – | – | 5.1 | – | – | 398
CN/C(=N\S(=O)(=O)N(C)C)N1CC(c2cccc(F)c2)C(c2ccc(Cl)cc2)=N1 (stereo not drawn) [N-{[3-(4-Chloro-phenyl)-4-(3-fluoro-phenyl)-4,5-dihydro-pyrazol-1-yl]-methylamino-methylene}-N,N-dimethyl-sulfonamide] | 100 | 72 | 77 | 5.3 | – | – | –
CNC(=NS(=O)(=O)N1CCCCC1)C1=NN(c2ccc(Cl)cc2)C(c2ccccc2)C1 (stereo not drawn) [Piperidine-1-sulfonic acid [1-(4-chloro-phenyl)-5-phenyl-4,5-dihydro-1H-pyrazol-3-yl]-methylamino-methyleneamide] | 794 | 84 | 47 | 4.5 | – | – | –
CNC(=NS(=O)(=O)N1CCCCC1)N1CC(c2cccc(F)c2)C(c2ccc(Cl)cc2)=N1 (stereo not drawn) [Piperidine-1-sulfonic acid [3-(4-chloro-phenyl)-4-(3-fluoro-phenyl)-4,5-dihydro-pyrazol-1-yl]-methylamino-methyleneamide] | 31600 | – | – | 6.3 | 794 | – | –
CN(C)CCNC(=NS(=O)(=O)N1CCCCC1)N1CC(c2ccccc2)C(c2ccc(Cl)cc2)=N1 (stereo not drawn) [Piperidine-1-sulfonic acid [3-(4-chloro-phenyl)-4-phenyl-4,5-dihydro-pyrazol-1-yl]-(2-dimethylamino-ethylamino)-methyleneamide] | 100000 | 71 | 64 | 4.0 | – | – | –
Cc1c(C(=O)c2cccc3ccccc23)c2cccc3c2n1[C@H](CN1CCOCC1)CO3 [R(+)-WIN55212-2, (2-Methyl-3-morpholin-4-ylmethyl-3,4-dihydro-5-oxa-2a-azacenaphthylen-1-yl)-naphthalen-1-yl-methanone, reference compound] | 39800 | 80 | 35 | – | – | – | –
Cc1c(C(=O)NN2CCCCC2)nn(-c2ccc(Cl)cc2Cl)c1-c1ccc(Cl)cc1 [Rimonabant, 5-(4-Chloro-phenyl)-1-(2,4-dichloro-phenyl)-4-methyl-1H-pyrazole-3-carboxylic acid piperidin-1-ylamide, reference compound] | 5010 | 22 | 18 | – | – | – | –
Cc1c(C(=O)c2cccc3ccccc23)c2cccc3c2n1[C@H](CN1CCOCC1)CO3 [drawing 112, (2-Methyl-3-morpholin-4-ylmethyl-3,4-dihydro-5-oxa-2a-azacenaphthylen-1-yl)-naphthalen-1-yl-methanone, reference compound] | – | 69 | 40 | – | – | – | –
CN/C(=N\S(=O)(=O)N1CCOCC1)N1CC(c2ccccc2)C(c2ccc(Cl)cc2)=N1 (stereo not drawn) [drawing 118, Morpholine-4-sulfonic acid [3-(4-chloro-phenyl)-4-phenyl-4,5-dihydro-pyrazol-1-yl]-methylamino-methyleneamide] | – | 83 | 91 | – | – | – | –
